Reference: US11708367B2, “Compounds for the treatment of kinase-dependent disorders” (Exelixis, Inc., priority 2018, dated 2023)

Columns and labels:
Assay type in all cases: biochemical
Met = Met (Homo sapiens (Human), UniProt P08581); test: Human Met kinase assay (33P radiometric, KinaseProfiler); details: 10 μM ATP, read-out: c-Met IC50
Procedure: (§1) Kinase activity and compound inhibition were investigated using the ^33P-Phosphoryl transfer radiometric kinase assay, performed using the KinaseProfiler™ service of Eurofins Pharma Discovery Services UK Limited. Dose-response experiments were performed using nine compound concentrations in a 96-well microtiter plate. For each assay, all compounds were prepared to a 50× final assay concentration (50 μM) in 100% DMSO, then diluted in a half-log series, with the final top concentration at 1 μM. This working stock of the compound was added to the assay well as the first component in the reaction, followed by the remaining components as detailed in the following assay protocols below. The positive control wells (100% kinase activity) contain all components of the reaction including 2% DMSO (control for solvent effects), except the compound of interest. Blank wells contain all components of the reaction, with the reference inhibitor, staurosporine. This reference compound was used to abolish kinase activity and generated the 0% kinase activity base-line. IC50 values were calculated by nonlinear regression analysis using the sigmoidal dose-response (variable slope) curve fit on XLFit version 5.3 (ID Business Solutions).
Human Met (residues R974-S1390 with A1209G and V1290L, 3.4 nM) was incubated with 8 mM MOPS pH 7.0, 0.2 mM EDTA, 250 µM KKKGQEEEYVFIE (SEQ ID NO. 45), 1 mM sodium orthovanadate, 5 mM […], 10 mM magnesium acetate, and 10 μM [γ-33P-ATP]. The reaction was initiated by the addition of the Mg/ATP mix. After incubation for 40 minutes at room temperature, the reaction was stopped by the addition of phosphoric acid to a concentration of 0.5%. A reaction aliquot of 10 μL was then spotted onto a P30 filtermat and washed four times for 4 minutes in 0.425% phosphoric acid and once in methanol prior to drying and scintillation counting. Incorporated 33P was measured using the Wallac Microbeta scintillation counter (Perkin Elmer).

Mer = Mer (Homo sapiens (Human), UniProt Q12866); test: Human Mer kinase assay (33P radiometric, KinaseProfiler); details: 10 μM ATP
Sequence of Mer (Q12866 557-882): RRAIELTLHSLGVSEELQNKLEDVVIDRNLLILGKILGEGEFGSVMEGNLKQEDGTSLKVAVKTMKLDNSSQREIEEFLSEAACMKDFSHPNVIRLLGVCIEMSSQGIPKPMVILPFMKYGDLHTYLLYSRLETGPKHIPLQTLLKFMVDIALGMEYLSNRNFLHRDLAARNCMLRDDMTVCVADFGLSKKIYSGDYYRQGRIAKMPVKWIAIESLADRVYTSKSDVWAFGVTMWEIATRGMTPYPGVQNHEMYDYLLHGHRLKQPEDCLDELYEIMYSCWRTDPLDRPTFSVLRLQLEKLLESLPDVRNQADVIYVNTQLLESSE
Procedure: as §1
Human Mer (residues R557-E882 with H628Q and R794A, 0.7 nM) was incubated with 8 mM MOPS pH 7.0, 0.2 mM EDTA, 30 mM NaCl, 250 μM GGMEDIYFEFMGGKKK (SEQ ID NO. 44), 10 mM magnesium acetate, and 10 μM [γ-33P-ATP]. The reaction was initiated by the addition of the Mg/ATP mix. After incubation for 40 minutes at room temperature, the reaction was stopped by the addition of phosphoric acid to a concentration of 0.5%. A reaction aliquot of 10 μL was then spotted onto a P30 filtermat and washed four times for 4 minutes in 0.425% phosphoric acid and once in methanol prior to drying and scintillation counting. Incorporated 33P was measured using the Wallac Microbeta scintillation counter (Perkin Elmer).

Human Axl = Human Axl (Homo sapiens (Human), UniProt P30530, Q764R); test: Human AXL kinase assay (33P radiometric, KinaseProfiler); details: 10 μM ATP
Sequence of Human Axl (P30530 473-894 Q764R): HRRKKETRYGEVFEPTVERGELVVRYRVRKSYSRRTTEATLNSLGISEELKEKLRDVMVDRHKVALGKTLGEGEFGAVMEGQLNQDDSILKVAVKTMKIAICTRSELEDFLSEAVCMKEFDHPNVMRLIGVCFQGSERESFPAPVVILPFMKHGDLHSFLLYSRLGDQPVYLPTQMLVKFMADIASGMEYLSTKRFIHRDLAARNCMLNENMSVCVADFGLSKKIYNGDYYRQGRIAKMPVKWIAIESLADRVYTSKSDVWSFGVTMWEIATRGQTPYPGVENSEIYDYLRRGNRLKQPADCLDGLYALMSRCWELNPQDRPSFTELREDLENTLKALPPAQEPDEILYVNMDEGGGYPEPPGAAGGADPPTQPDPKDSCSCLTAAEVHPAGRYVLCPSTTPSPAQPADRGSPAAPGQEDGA
Procedure: as §1
Human Axl (residues H473-A894 with Q764R, 161 nM) was incubated with 8 mM MOPS pH 7.0, 0.2 mM EDTA, 250 μM KKSRGDYMTMQIG (SEQ ID NO. 43), 10 mM magnesium acetate and 10 μM [γ-33P-ATP]. The reaction was initiated by the addition of the Mg/ATP mix. After incubation for 40 minutes at room temperature, the reaction was stopped by the addition of phosphoric acid to a concentration of 0.5%. A reaction aliquot of 10 μL was then spotted onto a P30 filtermat and washed four times for 4 minutes in 0.425% phosphoric acid and once in methanol prior to drying and scintillation counting. Incorporated ^33P was measured using the Wallac Microbeta scintillation counter (Perkin Elmer).

Cc1cc2ncnc(Oc3ccc(NC(=O)C4(C(=O)Nc5ccc(F)cc5)CC4)cc3)c2nc1C [Compound 43, 1-N-[4-(6,7-dimethyl-pyrido[3,2-d]pyrimidin-4-yl)oxyphenyl]-1-N′-(4-fluorophenyl)cyclo-propane-1,1-dicarboxamide]
IC50 (Met): 100 to 1000 nM | IC50 (Mer): 100 to 1000 nM | IC50 (Human Axl): 100 to 1000 nM

COc1cnc2c(Oc3ccc(NC(=O)C4(C(=O)Nc5ccc(F)cc5)CC4)cc3)ncnc2c1 [Compound 16, 1-N′-(4-fluorophenyl)-1-N-[4-(7-methoxy-pyrido[3,2-d]pyrimidin-4-yl)oxyphenyl]cyclo-propane-1,1-dicarboxamide]
IC50 (Met): 10 to 100 nM | IC50 (Mer): 100 to 1000 nM | IC50 (Human Axl): 100 to 1000 nM

N#Cc1ccc2ncnc(Oc3ccc(NC(=O)C4(C(=O)Nc5ccc(F)cc5)CC4)cc3)c2c1 [Compound 106, 1-N-[4-(6-cyanoquinazolin-4-yl)oxyphenyl]-1-N′-(4-fluorophenyl)cyclopropane-1,1-dicarboxamide]
IC50 (Met): > 1000 nM | IC50 (Mer): 100 to 1000 nM | IC50 (Human Axl): > 1000 nM

O=C(Nc1ccc(F)cc1)C1(C(=O)Nc2ccc(Oc3ncnc4cnc(Cl)cc34)cc2)CC1 [Compound 88, 1-N-[4-(6-chloropyrido[3,4-d]pyrimidin-4-yl)oxy-phenyl]-1-N′-(4-fluoro-phenyl)cyclopropane-1,1-dicarboxamide]
IC50 (Met): > 1000 nM | IC50 (Mer): 100 to 1000 nM | IC50 (Human Axl): 100 to 1000 nM

O=C(Nc1ccc(F)cc1)C1(C(=O)Nc2ccc(Oc3ncnc4ccncc34)cc2)CC1 [Compound 95, 1-N′-(4-fluorophenyl)-1-N-(4-pyrido[4,3-d]pyrimidin-4-yloxyphenyl)cyclo-propane-1,1-dicarboxamide]
IC50 (Met): 100 to 1000 nM | IC50 (Mer): 100 to 1000 nM | IC50 (Human Axl): 100 to 1000 nM

O=C(Nc1ccc(F)cc1)C1(C(=O)Nc2ccc(Oc3ncnc4cnccc34)cc2)CC1 [Compound 85, 1-N′-(4-fluorophenyl)-1-N-(4-pyrido[3,4-d]pyrimidin-4-yloxyphenyl)cyclopropane-1,1-dicarboxamide]
IC50 (Met): 100 to 1000 nM | IC50 (Mer): 100 to 1000 nM | IC50 (Human Axl): 100 to 1000 nM

O=C(Nc1ccc(F)cc1)C1(C(=O)Nc2ccc(Oc3ncnc4cc(Br)cnc34)cc2)CC1 [Compound 13, 1-N-[4-(7-bromopyrido[3,2-d]pyrimidin-4-yl)oxyphenyl]-1-N′-(4-fluorophenyl)cyclo-propane-1,1-dicarboxamide]
IC50 (Met): 100 to 1000 nM | IC50 (Mer): 100 to 1000 nM | IC50 (Human Axl): 100 to 1000 nM

O=C(Nc1ccc(F)cc1)C1(C(=O)Nc2ccc(Oc3ncnc4cccnc34)cc2)CC1 [Compound 7, 1-N′-(4-fluorophenyl)-1-N-(4-pyrido[3,2-d]pyrimidin-4-yloxyphenyl)cyclopropane-1,1-dicarboxamide]
IC50 (Met): 100 to 1000 nM | IC50 (Mer): > 1000 nM | IC50 (Human Axl): > 1000 nM

O=C(Nc1ccc(F)cc1)C1(C(=O)Nc2ccc(Oc3ncnc4cc(Cl)cnc34)cc2)CC1 [Compound 12, 1-N-[4-(7-chloropyrido[3,2-d]pyrimidin-4-yl)oxyphenyl]-1-N′-(4-fluorophenyl)cyclo-propane-1,1-dicarboxamide]
IC50 (Met): 100 to 1000 nM | IC50 (Mer): 100 to 1000 nM | IC50 (Human Axl): > 1000 nM
